Among the data in patent US20230373939A1 (VERTEX PHARMACEUTICALS INCORPORATED, priority 2020, published 2023) are Emax and EC50 values, retold here.

The target in the assay is T1, F508del in NIH 3T3 cells (Homo sapiens, UniProt P13569, DEL508-508).
T1 construct: expressed in transfected cells
In words: 3T3 assay: membrane potential optical assay for F508del correction. It is filed as cell-based. From the text: 1. Membrane Potential Optical Methods for Assaying F508del Modulation Properties of Compounds
The assay utilizes fluorescent voltage sensing dyes to measure changes in membrane potential using a fluorescent plate reader (e.g., FLTPR III, Molecular Devices, Inc.) as a readout for increase in functional F508del in NIH 3T3 cells. The driving force for the response is the creation of a chloride ion gradient in conjunction with channel activation by a single liquid addition step after the cells have previously been treated with compounds and subsequently loaded with a voltage sensing dye.
2. Identification of Corrector Compounds
To identify correctors of F508del, a single-addition HTS assay format was developed. This HTS assay utilizes fluorescent voltage sensing dyes to measure changes in membrane potential on the FLIPR III as a measurement for increase in gating (conductance) of F508del in F508del NUT 3T3 cells. The F508del NUT 3T3 cell cultures were incubated with the corrector compounds at a range of concentrations for 18-24 hours at 37° C., and subsequently loaded with a redistribution dye. The driving force for the response is a Cl^− ion gradient in conjunction with channel activation with forskolin in a single liquid addition step using a fluorescent plate reader such as FLIPR III.
Bath Solution #1: (in mM) NaCl 160, KCl 4.5, CaCl2 2, MgCl2 1, HEPES 10, pH 7.4 with NaOH.
Chloride-free bath solution: Chloride salts in Bath Solution #1 (above) are substituted with gluconate salts.
NIH3T3 mouse fibroblasts stably expressing F508del were used for optical measurements of membrane potential. The cells were maintained at 37° C. in 5% CO2 and 90% humidity in Dulbecco's modified Eagle's medium supplemented with 2 mM glutamine, 10% fetal bovine serum, 1×NEAA, b-ME, 1×pen/strep, and 25 mM HEPES in 175 cm^2 culture flasks. For all optical assays, the cells were seeded at ˜20,000/well in 384-well Matrigel-coated plates. For the correction assays, the cells were cultured at 37° C. with and without compounds for 16-24 hours.

[1] abbreviates: NIH3T3, NIH 3T3 cells, F508del, read-out: 3T3 Max Activity (%).
[2] abbreviates: NIH 3T3 cells, F508del, read-out: 3T3 EC50.
[3] abbreviates: NIH3T3, read-out: 3T3 Max Activity (%).

The structures appear in SMILES notation. Read-outs that look alike come from different tables or passages of the source.

T1 sequence (P13569 with tags, fused parts or gaps DEL508-508): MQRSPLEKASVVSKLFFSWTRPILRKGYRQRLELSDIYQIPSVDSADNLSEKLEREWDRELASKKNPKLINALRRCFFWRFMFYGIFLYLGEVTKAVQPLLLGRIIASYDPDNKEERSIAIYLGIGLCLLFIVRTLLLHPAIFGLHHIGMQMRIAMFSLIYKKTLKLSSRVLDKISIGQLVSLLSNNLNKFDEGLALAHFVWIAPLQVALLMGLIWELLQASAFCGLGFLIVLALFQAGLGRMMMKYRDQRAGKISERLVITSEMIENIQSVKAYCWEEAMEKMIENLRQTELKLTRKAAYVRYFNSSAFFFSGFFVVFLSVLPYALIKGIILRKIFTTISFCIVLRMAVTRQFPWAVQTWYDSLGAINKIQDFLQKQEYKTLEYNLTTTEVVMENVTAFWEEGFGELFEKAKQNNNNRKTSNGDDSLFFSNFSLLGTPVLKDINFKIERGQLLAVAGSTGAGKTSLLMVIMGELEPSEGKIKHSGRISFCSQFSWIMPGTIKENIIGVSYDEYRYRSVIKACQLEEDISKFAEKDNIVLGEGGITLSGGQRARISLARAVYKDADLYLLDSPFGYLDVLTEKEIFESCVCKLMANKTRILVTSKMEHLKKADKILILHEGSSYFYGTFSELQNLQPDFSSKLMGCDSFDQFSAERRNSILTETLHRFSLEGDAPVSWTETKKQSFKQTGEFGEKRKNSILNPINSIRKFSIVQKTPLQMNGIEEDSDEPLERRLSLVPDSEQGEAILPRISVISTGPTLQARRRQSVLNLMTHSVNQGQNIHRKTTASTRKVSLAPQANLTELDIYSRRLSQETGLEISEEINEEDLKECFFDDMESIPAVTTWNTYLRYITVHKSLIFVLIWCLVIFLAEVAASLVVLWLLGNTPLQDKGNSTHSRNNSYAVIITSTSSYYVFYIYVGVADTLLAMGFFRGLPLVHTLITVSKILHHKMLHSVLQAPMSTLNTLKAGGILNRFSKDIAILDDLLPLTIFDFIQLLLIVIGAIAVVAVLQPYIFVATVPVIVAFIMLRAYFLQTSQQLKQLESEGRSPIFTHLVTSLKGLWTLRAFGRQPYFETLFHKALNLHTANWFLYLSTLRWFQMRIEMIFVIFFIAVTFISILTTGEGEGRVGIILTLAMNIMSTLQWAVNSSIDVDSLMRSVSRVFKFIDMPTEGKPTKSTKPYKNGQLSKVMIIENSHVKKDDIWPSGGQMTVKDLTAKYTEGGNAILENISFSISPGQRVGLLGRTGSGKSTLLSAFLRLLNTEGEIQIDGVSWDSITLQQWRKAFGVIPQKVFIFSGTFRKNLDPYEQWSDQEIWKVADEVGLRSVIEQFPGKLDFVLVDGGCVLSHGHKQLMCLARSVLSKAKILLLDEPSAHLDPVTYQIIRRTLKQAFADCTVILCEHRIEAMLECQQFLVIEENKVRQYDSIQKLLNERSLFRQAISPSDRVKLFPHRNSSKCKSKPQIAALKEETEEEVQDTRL

Turning to `COc1ccccc1-c1cn(-c2cccc(Cl)c2)nc1NS(=O)(=O)c1ccccc1` [Compound 92, N-[1-(3-chlorophenyl)-4-(2-methoxyphenyl)pyrazol-3-yl]benzenesulfonamide], under setting [1], the Emax was in the range of 30 to 60%. For the same compound, the EC50 under setting [2] fell in the range of 1 to 3 µM.
For the compound `O=C(Nc1ccccc1)c1sc(NS(=O)(=O)c2ccccc2)nc1-c1ccccc1` [Compound 33, N,4-diphenyl-2-(phenylsulfonamido)thiazole-5-carboxamide], the Emax under setting [1] is less than 30%.
With `Cc1ccc(-c2cn(-c3cccc(Cl)c3)nc2NS(=O)(=O)c2ccccc2)cc1` [Compound 93, N-[1-(3-chlorophenyl)-4-(p-tolyl)pyrazol-3-yl]benzenesulfonamide], the Emax under setting [1] was less than 30%.
On to `O=S(=O)(Nc1ccn(Cc2ccccc2)n1)c1ccccc1` [Compound 102, N-(1-benzylpyrazol-3-yl)benzenesulfonamide], for which the Emax under setting [3] is less than 30%.
For `Cc1cc(C)c(-n2nc(NS(=O)(=O)c3ccccc3)cc2-c2cccc(Oc3ccccc3)c2)c(C)c1` [Compound 54, N-[5-(3-phenoxyphenyl)-1-(2,4,6-trimethylphenyl)pyrazol-3-yl]benzenesulfonamide], the Emax under setting [1] lay within 30 to 60%. The concentration for a half-maximal effect (EC50) under setting [2] is less than 1 µM.
As for `CC(C)=Cc1cn(-c2cccc(Cl)c2)nc1NS(=O)(=O)c1ccccc1` [Compound 85, N-[1-(3-chlorophenyl)-4-(2-methylprop-1-enyl)pyrazol-3-yl]benzenesulfonamide], under setting [1], the Emax is 30 to 60%. The EC50 under setting [2] is 3 to 30 µM.
For `Cc1cc(C)c(-n2nc(NS(=O)(=O)c3ccccc3)cc2C(C)(C)C)c(C)c1` [Compound 53, N-[5-tert-butyl-1-(2,4,6-trimethylphenyl)pyrazol-3-yl]benzenesulfonamide], the Emax under setting [1] is less than 30%.
Still for that read-out and setting: for `O=S(=O)(Nc1ncc(Cc2cnccn2)s1)c1ccccc1` [Compound 31, N-[5-(pyrazin-2-ylmethyl)thiazol-2-yl]benzenesulfonamide] the value was less than 30%.
As to `Cc1cc(C)cc(-c2nc(NS(=O)(=O)c3ccccc3)cc(C)c2C)c1` [Compound 155], the Emax under setting [1] is more than 60%. In addition, under setting [2], the concentration giving a half-maximal response (EC50) was 1 to 3 µM.
Turning to `O=c1c(NS(=O)(=O)c2ccccc2)nc(-c2ccccc2)cn1-c1ccccc1` [Compound 120, N-(3-oxo-4,6-diphenyl-pyrazin-2-yl)benzenesulfonamide], the Emax under setting [1] lay in the range of 30 to 60%. Moreover, under setting [2], the EC50 was 1 to 3 µM.
For the compound `Cc1cccc(C)c1-c1cnc(NCc2ccccc2)c(NS(=O)(=O)c2ccccc2)n1` [Compound 119, N-[3-(benzylamino)-6-(2,6-dimethylphenyl)pyrazin-2-yl]benzenesulfonamide], the Emax under setting [1] is 30 to 60%. Further, the EC50 under setting [2] was 1 to 3 µM.
On the same counts, the results for `Cc1nc(NS(=O)(=O)c2ccccc2)sc1-c1csc(Nc2ccccn2)n1` [Compound 30, N-[4-methyl-5-[2-(2-pyridylamino)thiazol-4-yl]thiazol-2-yl]benzenesulfonamide] are 30 to 60% and 1 to 3 µM.
In the case of `O=S(=O)(Nc1onc(-c2ccc(Cl)cc2)c1-c1ccc(Cl)cc1)c1ccccc1` [Compound 1, N-[3,4-bis(4-chlorophenyl)isoxazol-5-yl]benzenesulfonamide], under setting [3], the Emax lay within 30 to 60%. In addition, under setting [2], the EC50 lay within 1 to 3 µM.
With `Cc1cc(C)c(-n2cc(-c3ccccc3)c(NS(=O)(=O)c3ccccc3)n2)c(C)c1` [Compound 96, N-[4-phenyl-1-(2,4,6-trimethylphenyl)pyrazol-3-yl]benzenesulfonamide], the Emax under setting [1] was in the range of 30 to 60%. The EC50 under setting [2] is less than 1 µM.
For `CCOC(=O)C1=C(c2ccccc2)N=C(NS(=O)(=O)c2ccccc2)SC1c1ccccc1` (stereo not shown) [Compound 116, ethyl 2-(benzenesulfonamido)-4,6-diphenyl-6H-1,3-thiazine-5-carboxylate], in that order: more than 60% and less than 1 µM.
Turning to `Cc1cc(C)c(-n2nc(NS(=O)(=O)c3ccccc3)cc2-c2cccc(Cl)c2)c(C)c1` [Compound 57, N-[5-(3-chlorophenyl)-1-(2,4,6-trimethylphenyl)pyrazol-3-yl]benzenesulfonamide], the Emax under setting [1] was more than 60%. The EC50 under setting [2] is less than 1 µM.
For the compound `O=S(=O)(Nc1n[nH]cc1-c1ccccc1)c1ccccc1` [Compound 77, N-(4-phenyl-1H-pyrazol-3-yl)benzenesulfonamide], under setting [1], the Emax is less than 30%.
In the case of `Cc1ccc(-n2nc(NS(=O)(=O)c3ccccc3)cc2C(C)(C)C)cc1` [Compound 80, N-[5-tert-butyl-1-(p-tolyl)pyrazol-3-yl]benzenesulfonamide], the Emax under setting [1] lay within 30 to 60%.
As for `O=C(NCCOCC1CC1)c1sc(NS(=O)(=O)c2ccccc2)nc1-c1ccccc1` [Compound 37, 2-(benzenesulfonamido)-N-[2-(cyclopropylmethoxy)ethyl]-4-phenyl-thiazole-5-carboxamide], the Emax under setting [1] is less than 30%.
As for `Cc1ccc(-c2nc(NS(=O)(=O)c3ccccc3)oc2-c2ccc(C)cc2)cc1` [Compound 3, N-[4,5-bis(p-tolyl)oxazol-2-yl]benzenesulfonamide], the Emax under setting [3] is more than 60%. Further, the EC50 under setting [2] is 1 to 3 µM.
As for `Cc1cccc(-c2cn(-c3cccc(Cl)c3)nc2NS(=O)(=O)c2ccccc2)c1` [Compound 94, N-[1-(3-chlorophenyl)-4-(m-tolyl)pyrazol-3-yl]benzenesulfonamide], the Emax under setting [1] was in the range of 30 to 60%. Further, the EC50 under setting [2] lay in the range of 1 to 3 µM.
`Cc1ccccc1-c1cn(-c2cccc(Cl)c2)nc1NS(=O)(=O)c1ccccc1` [Compound 95, N-[1-(3-chlorophenyl)-4-(o-tolyl)pyrazol-3-yl]benzenesulfonamide]: the Emax under setting [1] was less than 30%.
Take `CC(C)(C)CCNC(=O)c1sc(NS(=O)(=O)c2ccccc2)nc1-c1ccccc1` [Compound 15, 2-(benzenesulfonamido)-N-(3,3-dimethylbutyl)-4-phenyl-thiazole-5-carboxamide]: the Emax under setting [1] was in the range of 30 to 60%. In addition, the EC50 under setting [2] lay within 3 to 30 µM.
Compound `O=S(=O)(Nc1nn(-c2cccc(Cl)c2)cc1-c1cccc(Cl)c1)c1ccccc1` [Compound 70, N-[1,4-bis(3-chlorophenyl)pyrazol-3-yl]benzenesulfonamide] displayed an EC50 of less than 1 µM. Also, the Emax under setting [3] lay in the range of 30 to 60%.
Turning to `Cc1ccc(-c2ccc(NS(=O)(=O)c3ccccc3)nc2-c2ccc(C)cc2)cc1` [Compound 144, N-[5,6-bis(p-tolyl)-2-pyridyl]benzenesulfonamide], under setting [1], the Emax is more than 60%. In addition, the EC50 under setting [2] is 1 to 3 µM.
On the same counts, the results for `Cc1cccc(-c2nc(NS(=O)(=O)c3ccccc3)cc(C)c2C)c1C` [Compound 158] are more than 60% and 3 to 30 µM.
Consider `O=S(=O)(Nc1nc(-c2ccccc2)c(-c2ccccc2)s1)c1ccccc1` [Compound 7, N-(4,5-diphenylthiazol-2-yl)benzenesulfonamide], for which, under setting [3], the Emax is more than 60%. Besides, the concentration giving a half-maximal response (EC50) under setting [2] is 1 to 3 µM.
Turning to `COc1cccc(-c2cn(Cc3ccccc3)nc2NS(=O)(=O)c2ccccc2)c1` [Compound 112], the Emax under setting [1] was less than 30%.
`Cc1ccc(C)c(-c2nc(NS(=O)(=O)c3ccccc3)ccc2C)c1` [Compound 138, N-[6-(2,5-Dimethylphenyl)-5-methyl-2-pyridyl]benzenesulfonamide]: the Emax under setting [1] is more than 60%. Moreover, the 50% effective concentration (EC50) under setting [2] was 1 to 3 µM.
On the same counts, the results for `Nc1cccc(S(=O)(=O)Nc2nc(Oc3ccccc3)nc(-c3ccccc3)n2)c1` [Compound 126, 3-amino-N-(4-phenoxy-6-phenyl-1,3,5-triazin-2-yl)benzenesulfonamide] are 30 to 60% and 3 to 30 µM.
Turning to `COc1ccc(Cl)cc1Nc1nc(-c2sc(NS(=O)(=O)c3ccccc3)nc2C)cs1` [Compound 27, N-[5-[2-(5-chloro-2-methoxy-anilino)thiazol-4-yl]-4-methyl-thiazol-2-yl]benzenesulfonamide], the Emax under setting [3] lay in the range of 30 to 60%. Besides, the concentration giving a half-maximal response (EC50) under setting [2] lay in the range of 1 to 3 µM.
With `Cc1ccc(C)c(-c2nc(NS(=O)(=O)c3ccccc3)cc(C)c2C)c1` [Compound 139, N-[6-(2,5-Dimethylphenyl)-4,5-dimethyl-2-pyridyl]benzenesulfonamide], the Emax under setting [1] is more than 60%. For the same compound, the EC50 under setting [2] lay within 1 to 3 µM.
For the compound `Cc1cc(C)c(-n2nc(NS(=O)(=O)c3ccccc3)cc2C2=CCCCC2)c(C)c1` [Compound 63, N-[5-(cyclohexen-1-yl)-1-(2,4,6-trimethylphenyl)pyrazol-3-yl]benzenesulfonamide], the Emax under setting [1] was more than 60%. Moreover, under setting [2], the EC50 was in the range of 1 to 3 µM.
As for `Cc1ccc(-c2nc(NS(=O)(=O)c3ccccc3)cc(C)c2C)cc1C` [Compound 157], under setting [1], the Emax was more than 60%. Moreover, under setting [2], the EC50 was in the range of 1 to 3 µM.
